Experiments:
[1] = target: T1, His434Phe-ERRγ mutant receptor (GST-fused LBD) (Homo sapiens, UniProt P62508, H434F); conditions: heterogeneous competitive binding
Method: (§1) Wild-type and mutant ERRγ-LBD proteins were expressed as glutathione S-transferase (GST)-fused preparations in E. coli BL21 as described previously [1], [24], [25]. […] After loading the protein solution, the column was incubated for 1 h at 4°C, and then washed three times with PBS containing 0.5% (v/v) Triton X-100 and once with sonication buffer (50 mM Tris-HCl (pH 8.0), 50 mM NaCl, 1 mM EDTA, and 1 mM dithiothreitol). […] The protein concentrations were determined by the Bradford method [26].
(§2) Competitive binding assays were performed in the presence of GST-fused wild-type ERRγ-LBD or its mutants at the most appropriate concentration of each receptor. […] Radioactivity was determined on a liquid scintillation counter TopCount NXT (PerkinElmer Life Sciences Japan Co., Ltd., Tokyo, Japan). To estimate the binding affinity, the IC50 values (the concentrations for the half-maximal inhibition) were calculated from the dose-response curves evaluated by the nonlinear analysis program ALLFIT [30]. Each assay was performed at least three times.

[2] = target: T2, Lys430Ala-ERRγ mutant receptor (GST-fused LBD) (Homo sapiens, UniProt P62508, K430A); conditions: heterogeneous binding assay using [^3H]BPA
Method: as §1, §2

[3] = target: T3, Leu345Ile-ERRγ mutant receptor (GST-fused LBD) (Homo sapiens, UniProt P62508, L345I); assay: Competitive binding assay using [^3H]BPA
T3 construct: wild-type ERRγ-LBD encoding 222-458 residues; made in house; host or cells: E. coli BL21
T3 sequence (P62508 222-458 L345I limits assumed): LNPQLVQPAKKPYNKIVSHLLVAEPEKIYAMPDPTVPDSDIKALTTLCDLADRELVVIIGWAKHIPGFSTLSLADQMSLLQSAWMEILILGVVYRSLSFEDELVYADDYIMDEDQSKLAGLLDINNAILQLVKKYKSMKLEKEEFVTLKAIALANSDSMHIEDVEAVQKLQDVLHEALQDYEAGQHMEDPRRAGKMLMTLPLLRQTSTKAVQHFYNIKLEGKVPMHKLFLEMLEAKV
Method: as §1, §2

[4] = target: T2, Lys430Ala-ERRγ mutant receptor (GST-fused LBD); assay: biochemical
Method: as §1, §2

[5] = target: T4, Val313Leu-ERRγ mutant receptor (GST-fused LBD) (Homo sapiens, UniProt P62508, V313L); conditions: BPA value re-collected from the previous report, read-out: Receptor binding potency IC50; cited from earlier work
T4 construct: wild-type ERRγ-LBD encoding 222-458 residues was generated by PCR; made in house; host or cells: E. coli BL21
T4 sequence (P62508 222-458 V313L limits assumed): as the sequence (P62508 222-458 L345I limits assumed) above, with V92L, I124L counted along it

[6] = target: T5, Asn346Gly-ERRγ mutant receptor (GST-fused LBD) (Homo sapiens, UniProt P62508, N346G); assay: Competitive binding assay using [^3H]BPA
T5 construct: wild-type ERRγ-LBD encoding 222-458 residues; made in house; host or cells: E. coli BL21
T5 sequence (P62508 222-458 N346G): as the sequence (P62508 222-458 L345I limits assumed) above, with I124L, N125G counted along it
Method: as §1, §2

[7] = target: T6, Ile310Ala-ERRγ mutant receptor (GST-fused LBD) (Homo sapiens, UniProt P62508, I310A); conditions: BPA value re-collected from the previous report, read-out: Receptor binding potency IC50; cited from earlier work
T6 construct: wild-type ERRγ-LBD encoding 222-458 residues was generated by PCR; made in house; host or cells: E. coli BL21
T6 sequence (P62508 222-458 I310A limits assumed): as the sequence (P62508 222-458 L345I limits assumed) above, with I89A, I124L counted along it

[8] = target: Leu342Ile-ERRγ mutant receptor (GST-fused LBD) (Homo sapiens, UniProt P62508, L342I); assay: biochemical
Chain of Leu342Ile-ERRγ mutant receptor (GST-fused LBD) (P62508 222-458 L342I limits assumed): as the sequence (P62508 222-458 L345I limits assumed) above, with L121I, I124L counted along it
Method: as §1, §2

[9] = target: Leu345Ala-ERRγ mutant receptor (GST-fused LBD) (Homo sapiens, UniProt P62508, L345A); assay: biochemical
Chain of Leu345Ala-ERRγ mutant receptor (GST-fused LBD) (P62508 222-458 L345A limits assumed): as the sequence (P62508 222-458 L345I limits assumed) above, with I124A counted along it
Method: as §1, §2

[10] = target: Asn346Ala-ERRγ mutant receptor (GST-fused LBD) (Homo sapiens, UniProt P62508, N346A); assay: biochemical
Chain of Asn346Ala-ERRγ mutant receptor (GST-fused LBD) (P62508 222-458 N346A): as the sequence (P62508 222-458 L345I limits assumed) above, with I124L, N125A counted along it
Method: as §1, §2

[11] = target: Ile349Ala-ERRγ mutant receptor (GST-fused LBD) (Homo sapiens, UniProt P62508, I349A); assay: biochemical
Chain of Ile349Ala-ERRγ mutant receptor (GST-fused LBD) (P62508 222-458 I349A limits assumed): as the sequence (P62508 222-458 L345I limits assumed) above, with I124L, I128A counted along it
Method: as §2

[12] = target: T7, Asn346Tyr-ERRγ mutant receptor (GST-fused LBD) (Homo sapiens, UniProt P62508, N346Y); assay: Competitive binding assay using [^3H]BPA
T7 construct: wild-type ERRγ-LBD encoding 222-458 residues; made in house; host or cells: E. coli BL21
T7 sequence (P62508 222-458 N346Y): as the sequence (P62508 222-458 L345I limits assumed) above, with I124L, N125Y counted along it
Method: as §1, §2

[13] = target: Leu345Val-ERRγ mutant receptor (GST-fused LBD) (Homo sapiens, UniProt P62508, L345V); assay: biochemical
Chain of Leu345Val-ERRγ mutant receptor (GST-fused LBD) (P62508 222-458 L345V limits assumed): as the sequence (P62508 222-458 L345I limits assumed) above, with I124V counted along it
Method: as §1, §2

[14] = target: T8, Val313Ala-ERRγ mutant receptor (GST-fused LBD) (Homo sapiens, UniProt P62508, V313A); conditions: BPA value re-collected from the previous report, read-out: Receptor binding potency IC50; cited from earlier work
T8 construct: wild-type ERRγ-LBD encoding 222-458 residues was generated by PCR; made in house; host or cells: E. coli BL21
T8 sequence (P62508 222-458 V313A): as the sequence (P62508 222-458 L345I limits assumed) above, with V92A, I124L counted along it

[15] = tested on: ERRγ mutant receptors; assay: [^3H]BPA saturation and/or competitive binding: ranges stated over several ERRγ mutants or both assays; design: species or system human; conditions: for Activity decrements vs wild-type: competitive binding (Table 2)
Method: The reaction mixture was incubated at 4°C for 2 h with the receptor proteins—GST-fused wild-type ERRγ-LBD or its mutants—in 100 µl of binding buffer [10 mM HEPES (pH 7.5), 50 mM NaCl, 2 mM MgCl2, 1 mM EDTA, 2 mM CHAPS, and 2 mg/ml γ-globulin]. The assay was performed with or without the addition of unlabelled BPA (final concentration of 1.0×10^-5 M) to quantify the specific and nonspecific binding. After incubation with 100 µl of 1% dextran-coated charcoal (DCC) (Sigma-Aldrich) in PBS (pH 7.4) for 10 min at 4°C, the DCC-absorbed free radio-ligand was removed by the direct vacuum filtration method using a 96-well filtration plate (MultiScreen^HTS HV, 0.45 µm pore size; Millipore, Billerica, MA, USA) for the bound/free separation. Radioactivity was determined on a liquid scintillation counter (LS6500; Beckman Coulter, Fullerton, CA, USA).
The saturation binding assay was performed at least three times.
Each assay was performed at least three times.

[16] = target: GST-fused wild-type ERRγ-LBD (Homo sapiens, UniProt P62508); assay: biochemical; conditions: [^3H]BPA 5 nM, 4°C, 2 h
Chain of GST-fused wild-type ERRγ-LBD (P62508 222-458): as the sequence (P62508 222-458 L345I limits assumed) above, with I124L counted along it
Method: as §1, §2

[17] = target: Ile349Leu-ERRγ mutant receptor (GST-fused LBD) (Homo sapiens, UniProt P62508, I349L); assay: biochemical
Chain of Ile349Leu-ERRγ mutant receptor (GST-fused LBD) (P62508 222-458 I349L): as the sequence (P62508 222-458 L345I limits assumed) above, with I124L, I128L counted along it
Method: as §2

[18] = target: Ile349Val-ERRγ mutant receptor (GST-fused LBD) (Homo sapiens, UniProt P62508, I349V); assay: biochemical
Chain of Ile349Val-ERRγ mutant receptor (GST-fused LBD) (P62508 222-458 I349V limits assumed): as the sequence (P62508 222-458 L345I limits assumed) above, with I124L, I128V counted along it
Method: as §2

[19] = target: T9, Tyr330Ala-ERRγ mutant receptor (GST-fused LBD) (Homo sapiens, UniProt P62508, Y330A); assay: Competitive binding assay using [^3H]BPA
T9 construct: wild-type ERRγ-LBD encoding 222-458 residues was generated by PCR; made in house; host or cells: E. coli BL21
T9 sequence (P62508 222-458 Y330A): as the sequence (P62508 222-458 L345I limits assumed) above, with Y109A, I124L counted along it
Method: as §1, §2

[20] = target: T10, Tyr330Phe-ERRγ mutant receptor (GST-fused LBD) (Homo sapiens, UniProt P62508, Y330F); assay: Competitive binding assay using [^3H]BPA
T10 construct: wild-type ERRγ-LBD encoding 222-458 residues was generated by PCR; made in house; host or cells: E. coli BL21
T10 sequence (P62508 222-458 Y330F): as the sequence (P62508 222-458 L345I limits assumed) above, with Y109F, I124L counted along it
Method: as §1, §2

[21] = target: T8, Val313Ala-ERRγ mutant receptor (GST-fused LBD); assay: Competitive binding assay using [^3H]BPA; conditions: competitive binding (Table 3, BPA value from ref 24)
Method: as §1, §2

[22] = target: Leu342Val-ERRγ mutant receptor (GST-fused LBD) (Homo sapiens, UniProt P62508, L342V); assay: biochemical
Chain of Leu342Val-ERRγ mutant receptor (GST-fused LBD) (P62508 222-458 L342V limits assumed): as the sequence (P62508 222-458 L345I limits assumed) above, with L121V, I124L counted along it
Method: as §1, §2

[23] = target: Asn346Gln-ERRγ mutant receptor (GST-fused LBD) (Homo sapiens, UniProt P62508, N346Q); assay: biochemical
Chain of Asn346Gln-ERRγ mutant receptor (GST-fused LBD) (P62508 222-458 N346Q): as the sequence (P62508 222-458 L345I limits assumed) above, with I124L, N125Q counted along it
Method: as §1, §2

[24] = target: T1, His434Phe-ERRγ mutant receptor (GST-fused LBD); assay: biochemical
Method: as §1, §2

[25] = read-out: Receptor binding potency IC50

T1 sequence (P62508 222-458 H434F): as the sequence (P62508 222-458 L345I limits assumed) above, with I124L, H213F counted along it
T2 sequence (P62508 222-458 K430A): as the sequence (P62508 222-458 L345I limits assumed) above, with I124L, K209A counted along it

## CC/C(=C(\c1ccc(O)cc1)c1ccc(OCCN(C)C)cc1)c1ccccc1 [4-OHT, 4-hydroxytamoxifen]
[1]
  Reduction in receptor-binding potency vs wild-type: more than 40 fold
[2]
  Reinforced binding potency vs wild-type: about 40%

## CC(C)(c1ccc(O)cc1)c1ccc(O)cc1 [BPA, bisphenol A]
[3]; Leu345Ile mutant, homologous competitive binding
  Decrease in binding vs wild-type: approximately 30 fold
[3]; [25]
  IC50: 0.158 ± 0.0198 µM
[4]
  IC50: 0.0097 ± 0.00037 µM
[5]
  IC50: 0.016 ± 0.00141 µM
[6]; Asn346Gly mutant, homologous competitive binding
  Binding affinity relative to the wild-type ERRγ (IC50): ca. 12%
[6]; [25]
  IC50: 0.0424 ± 0.00544 µM
[7]
  IC50: 0.0219 ± 0.00099 µM
[8]
  IC50: 0.0245 ± 0.00453 µM
[9]
  IC50: 0.0606 ± 0.0112 µM
[10]
  IC50: 0.0201 ± 0.00341 µM
[11]
  IC50: 0.0201 ± 0.00324 µM
[12]; Asn346Tyr mutant, competitive binding
  Reduction in binding affinity vs wild-type: approximately 9 fold
[12]; [25]
  IC50: 0.0452 ± 0.00891 µM
[13]
  IC50: 0.154 ± 0.0175 µM
[14]
  IC50: 0.0268 ± 0.00212 µM
[15]; Asn346Ala mutant, saturation and competitive binding (Tables 1 and 2)
  Reduced binding affinity vs wild-type: 2–4 times
[15]; Asn346Gln mutant, saturation and competitive binding (Tables 1 and 2)
  Reduction in the affinity vs wild-type: 3-10 fold
[15]; Asn346 mutant receptors (Ala, Gly, Gln, Tyr)
  Activity decrements vs wild-type: 4.0–11.3 times
[15]; Ile349Ala mutant, saturation and competitive binding (Tables 1 and 2)
  Reduction in affinity vs wild-type: 3-4 fold
[15]; Ile349Val and Ile349Leu mutants
  Activity decrements vs wild-type: 110-135%
[15]; Leu342Val and Leu342Ile mutants, homologous competitive binding (Table 2)
  Reduction in IC50 value vs wild-type: 5–7 fold
[15]; Leu342Val and Leu342Ile mutants, saturation binding (Table 1)
  Reduction in the binding affinity vs wild-type: 3–4 fold
[16]; Receptor binding potency IC50, wild-type ERRγ (Table 2)
  IC50: 0.00496 ± 0.00071 µM
[16]; Receptor binding potency IC50, wild-type ERRγ (Table 3, back support series)
  IC50: 0.00564 ± 0.00017 µM
[17]
  IC50: 0.0104 ± 0.00064 µM
[18]
  IC50: 0.0117 ± 0.0015 µM
[19]; Tyr330Ala mutant, homologous competitive binding
  Reduction in IC50 value vs wild-type: more than 60 fold
[19]; [25]
  IC50: 0.361 ± 0.0393 µM
[20]; Tyr330Phe mutant, homologous competitive binding
  Reduction in IC50 value vs wild-type: approximately 3 fold
[20]; [25]
  IC50: 0.0161 ± 0.00058 µM
[21]
  Reduction in binding affinities vs wild-type: approximately 5 fold
[22]
  IC50: 0.0347 ± 0.00538 µM
[23]
  IC50: 0.0561 ± 0.00742 µM
[24]
  IC50: 0.0137 ± 0.00066 µM

Source: paper PMC4076284, “A Characteristic Back Support Structure in the Bisphenol A-Binding Pocket in the Human Nuclear Receptor ERRγ” (PLoS ONE, 2014)
